Experimental data reported in patent US20220409620A1, “REDUCING IMMUNOGENICITY TO PEGLOTICASE” (Horizon Pharma Rheumatology LLC, priority 2016, published 2022).

System: adult patients with uncontrolled gout
Experiment: Serum uric acid (sUA) levels and sUA responder rate, open-label study of pegloticase with MTX (MIRROR OL)
Format: in vivo, human
Details: mITT Population
Description: The primary objective is to estimate the response rate during Month 6 (Weeks 20, 22, and 24), as measured by the sustained normalization of serum uric acid (SUA) to <6 mg/dL for at least 80% of the time during Month 6 in subjects receiving KXX with MTX.
The primary efficacy outcome endpoint is the sustained normalization of SUA to <6 mg/dL for at least 80% of the time during month 6 (weeks 20, 22, and 24) in subjects receiving KXX with MTX. […] Participants who achieve this endpoint were classified as “responders.” Serum uric acid (SUA) responders may also be defined as participants achieving and maintaining SUA <6 mg/dL for at least 80% of the time during Month 6 (Weeks 20, 22, and 24).
Blood samples may be collected prior to each pegloticase infusion for measurement of SUA levels using the Beckman Coulter AU System Uric Acid procedure. Participants were declared “non-responders” if there were SUA measures >6 mg/dL at 2 consecutive study visits beginning with the week 2 visit. […] This assumption and subsequent discontinuation of pegloticase was consistent with the protocol of large phase III randomized controlled trials and the product label. A formal stopping rule was 2 occasions of SUA levels of greater than 6 mg/dL.
Clinical Chemistry—Blood samples were collected prior to each pegloticase infusion for measurement of SUA levels (primary efficacy parameter) using the Beckman Coulter AU System Uric Acid procedure. In this procedure uric acid is converted to hydrogen peroxide. Hydrogen peroxide reacts with reagent to produce a chromophore which is read bichromatically at 660/800 nm. The amount of dye formed is proportional to the uric acid concentration in the sample.
Serum samples for measurement of SUA levels were collected at the Screening Visit, the Week −4 Visit (prior to the first dose of MTX), and the Week −2 Visit during the MTX Run-in Period; within 48 hours prior to each pegloticase infusion and after the end of each pegloticase infusion prior to discharge from the site during the Pegloticase+IMM Period; at the non-infusion Week 52/End of Study/Early Termination Visits and at the Post Treatment 3 and 6 Month Follow-up Visits. Additional serum samples for SUA levels were collected at optional non-infusion (Frequent Sampling) Visits at Weeks 1 and 7. […] Subjects with SUA level >6 mg/dL at 2 consecutive visits beginning at Week 2 visit discontinued treatment, completed the End of Pegloticase Infusion Visit procedures within 2 weeks and continued the subject visits according to the protocol (without treatment).
Efficacy analyses were performed using the modified intention-to-treat (mITT) population, defined as all enrolled subjects who received ≥1 dose of pegloticase. The proportion of Month 6 responders was summarized, along with a 95% confidence interval for the proportion. The proportion of Month 3 and overall (Months 3 and 6 combined) responders was analyzed similarly.
A subject was declared a non-responder if the subject had SUA level >6 mg/dL at 2 consecutive study visits beginning with the Week 2 Visit. In addition, a subject who withdraws from study treatment for any reason after the first dose of pegloticase in the KXX+MTX Period and prior to Month 6 (for the primary endpoint) or Month 3 (for the secondary endpoint) was considered a non-responder if SUA values were not collected at the planned time points.
Patients were administered oral MTX (15 mg/week) and folate (1 mg/day) 4 weeks prior to the first pegloticase infusion (Day 1) and throughout the pegloticase treatment period. Blood was drawn prior to each infusion to measure sUA level, monitor clinical parameters, and examine for ADA development. All patients followed typical IR prophylaxis protocols (fexofenadine one day before and the morning of each infusion and acetaminophen and IV corticosteroid the morning of each infusion).

pegloticase
-7.95 mg/dL: Serum Uric Acid, Change from Baseline, Median (Week 34 - Pre-Infusion)
8 (100%): sUA <6 mg/dL, n (%) (Week 26 - Pre-Infusion) | sUA <6 mg/dL, n (%) (Week 28 - Pre-Infusion) | sUA <6 mg/dL, n (%) (Week 30 - Pre-Infusion) | sUA <6 mg/dL, n (%) (Week 32 - Post-Infusion) | sUA <6 mg/dL, n (%) (Week 34 - Post-Infusion)
-8.60 mg/dL: Serum Uric Acid, Change from Baseline, Median (Week 36 - Pre-Infusion) | Serum Uric Acid, Change from Baseline, Median (Week 38 - Pre-Infusion)
−7.90 (4.094) mg/dL: Serum Uric Acid, Change from Baseline, Mean (SD) (Week 36 - Pre-Infusion)
−9.11 (3.293) mg/dL: Serum Uric Acid, Change from Baseline, Mean (SD) (Week 26 - Pre-Infusion) | Serum Uric Acid, Change from Baseline, Mean (SD) (Week 28 - Pre-Infusion) | Serum Uric Acid, Change from Baseline, Mean (SD) (Week 30 - Pre-Infusion) | Serum Uric Acid, Change from Baseline, Mean (SD) (Week 32 - Post-Infusion) | Serum Uric Acid, Change from Baseline, Mean (SD) (Week 34 - Post-Infusion)
-9.80 mg/dL: Serum Uric Acid, Change from Baseline, Median (Week 40 - Pre-Infusion) | Serum Uric Acid, Change from Baseline, Median (Week 42 - Pre-Infusion) | Serum Uric Acid, Change from Baseline, Median (Week 44 - Pre-Infusion) | Serum Uric Acid, Change from Baseline, Median (Week 48 - Post-Infusion) | Serum Uric Acid, Change from Baseline, Median (Week 50 - Post-Infusion)
5 (100%): sUA <6 mg/dL, n (%) (Week 24 - Post-Infusion) | sUA <6 mg/dL, n (%) (Week 38 - Pre-Infusion)
-8.80 mg/dL: Serum Uric Acid, Change from Baseline, Median (Week 20 - Post-Infusion) | Serum Uric Acid, Change from Baseline, Median (Week 20 - Pre-Infusion) | Serum Uric Acid, Change from Baseline, Median (Week 22 - Post-Infusion) | Serum Uric Acid, Change from Baseline, Median (Week 22 - Pre-Infusion) | Serum Uric Acid, Change from Baseline, Median (Week 24 - Pre-Infusion)
-8.95 mg/dL: Serum Uric Acid, Change from Baseline, Median (Week 26 - Pre-Infusion) | Serum Uric Acid, Change from Baseline, Median (Week 28 - Pre-Infusion) | Serum Uric Acid, Change from Baseline, Median (Week 30 - Pre-Infusion) | Serum Uric Acid, Change from Baseline, Median (Week 32 - Post-Infusion) | Serum Uric Acid, Change from Baseline, Median (Week 32 - Pre-Infusion) | Serum Uric Acid, Change from Baseline, Median (Week 34 - Post-Infusion)
1.05 (1.305) mg/dL: Serum Uric Acid, Observed, Mean (SD) (Week 44 - Pre-Infusion)
3 (100%): sUA <6 mg/dL, n (%) (Week 40 - Pre-Infusion) | sUA <6 mg/dL, n (%) (Week 42 - Pre-Infusion) | sUA <6 mg/dL, n (%) (Week 44 - Pre-Infusion) | sUA <6 mg/dL, n (%) (Week 48 - Post-Infusion) | sUA <6 mg/dL, n (%) (Week 50 - Post-Infusion)
−8.97 (2.810) mg/dL: Serum Uric Acid, Change from Baseline, Mean (SD) (Week 20 - Post-Infusion) | Serum Uric Acid, Change from Baseline, Mean (SD) (Week 20 - Pre-Infusion) | Serum Uric Acid, Change from Baseline, Mean (SD) (Week 22 - Post-Infusion) | Serum Uric Acid, Change from Baseline, Mean (SD) (Week 22 - Pre-Infusion) | Serum Uric Acid, Change from Baseline, Mean (SD) (Week 24 - Pre-Infusion)
1.60 (2.252) mg/dL: Serum Uric Acid, Observed, Mean (SD) (Week 48 - Post-Infusion)
−11.30 (3.686) mg/dL: Serum Uric Acid, Change from Baseline, Mean (SD) (Week 40 - Pre-Infusion) | Serum Uric Acid, Change from Baseline, Mean (SD) (Week 42 - Pre-Infusion)
-9.30 mg/dL: Serum Uric Acid, Change from Baseline, Median (Week 24 - Post-Infusion)
-12.65 mg/dL: Serum Uric Acid, Change from Baseline, Median (Week 46 - Pre-Infusion) | Serum Uric Acid, Change from Baseline, Median (Week 48 - Pre-Infusion) | Serum Uric Acid, Change from Baseline, Median (Week 50 - Pre-Infusion) | Serum Uric Acid, Change from Baseline, Median (Week 52/ET)
−8.99 (2.961) mg/dL: Serum Uric Acid, Change from Baseline, Mean (SD) (Week 32 - Pre-Infusion)
−10.33 (4.922) mg/dL: Serum Uric Acid, Change from Baseline, Mean (SD) (Week 48 - Post-Infusion)
−12.65 (4.031) mg/dL: Serum Uric Acid, Change from Baseline, Mean (SD) (Week 46 - Pre-Infusion) | Serum Uric Acid, Change from Baseline, Mean (SD) (Week 48 - Pre-Infusion) | Serum Uric Acid, Change from Baseline, Mean (SD) (Week 50 - Pre-Infusion) | Serum Uric Acid, Change from Baseline, Mean (SD) (Week 52/ET)
−9.18 (4.135) mg/dL: Serum Uric Acid, Change from Baseline, Mean (SD) (Week 24 - Post-Infusion)
0.30 mg/dL: Serum Uric Acid, Observed, Median (Week 20 - Post-Infusion) | Serum Uric Acid, Observed, Median (Week 20 - Pre-Infusion) | Serum Uric Acid, Observed, Median (Week 22 - Post-Infusion) | Serum Uric Acid, Observed, Median (Week 22 - Pre-Infusion) | Serum Uric Acid, Observed, Median (Week 24 - Post-Infusion) | Serum Uric Acid, Observed, Median (Week 24 - Pre-Infusion) | Serum Uric Acid, Observed, Median (Week 26 - Pre-Infusion) | Serum Uric Acid, Observed, Median (Week 28 - Pre-Infusion) | Serum Uric Acid, Observed, Median (Week 30 - Pre-Infusion) | Serum Uric Acid, Observed, Median (Week 32 - Post-Infusion) | Serum Uric Acid, Observed, Median (Week 32 - Pre-Infusion) | Serum Uric Acid, Observed, Median (Week 34 - Post-Infusion) | Serum Uric Acid, Observed, Median (Week 34 - Pre-Infusion) | Serum Uric Acid, Observed, Median (Week 36 - Post-Infusion) | Serum Uric Acid, Observed, Median (Week 36 - Pre-Infusion) | Serum Uric Acid, Observed, Median (Week 38 - Pre-Infusion) | Serum Uric Acid, Observed, Median (Week 40 - Pre-Infusion) | Serum Uric Acid, Observed, Median (Week 42 - Pre-Infusion) | Serum Uric Acid, Observed, Median (Week 44 - Pre-Infusion) | Serum Uric Acid, Observed, Median (Week 46 - Pre-Infusion) | Serum Uric Acid, Observed, Median (Week 48 - Post-Infusion) | Serum Uric Acid, Observed, Median (Week 48 - Pre-Infusion) | Serum Uric Acid, Observed, Median (Week 50 - Post-Infusion) | Serum Uric Acid, Observed, Median (Week 50 - Pre-Infusion) | Serum Uric Acid, Observed, Median (Week 52/ET)
−9.38 (3.799) mg/dL: Serum Uric Acid, Change from Baseline, Mean (SD) (Week 36 - Post-Infusion)
−10.55 (4.625) mg/dL: Serum Uric Acid, Change from Baseline, Mean (SD) (Week 44 - Pre-Infusion)
−8.41 (5.229) mg/dL: Serum Uric Acid, Change from Baseline, Mean (SD) (Week 38 - Pre-Infusion)
−8.47 (3.248) mg/dL: Serum Uric Acid, Change from Baseline, Mean (SD) (Week 34 - Pre-Infusion)
1.37 (1.848) mg/dL: Serum Uric Acid, Observed, Mean (SD) (Week 50 - Post-Infusion)
10 (100%): sUA <6 mg/dL, n (%) (Week 32 - Pre-Infusion) | sUA <6 mg/dL, n (%) (Week 34 - Pre-Infusion)
2 (100%): sUA <6 mg/dL, n (%) (Week 46 - Pre-Infusion) | sUA <6 mg/dL, n (%) (Week 48 - Pre-Infusion) | sUA <6 mg/dL, n (%) (Week 50 - Pre-Infusion) | sUA <6 mg/dL, n (%) (Week 52/ET)
6 (100%): sUA <6 mg/dL, n (%) (Week 36 - Post-Infusion)
−10.57 (4.598) mg/dL: Serum Uric Acid, Change from Baseline, Mean (SD) (Week 50 - Post-Infusion)
0.30 (0.000) mg/dL: Serum Uric Acid, Observed, Mean (SD) (Week 20 - Post-Infusion) | Serum Uric Acid, Observed, Mean (SD) (Week 20 - Pre-Infusion) | Serum Uric Acid, Observed, Mean (SD) (Week 22 - Post-Infusion) | Serum Uric Acid, Observed, Mean (SD) (Week 22 - Pre-Infusion) | Serum Uric Acid, Observed, Mean (SD) (Week 24 - Post-Infusion) | Serum Uric Acid, Observed, Mean (SD) (Week 24 - Pre-Infusion) | Serum Uric Acid, Observed, Mean (SD) (Week 26 - Pre-Infusion) | Serum Uric Acid, Observed, Mean (SD) (Week 28 - Pre-Infusion) | Serum Uric Acid, Observed, Mean (SD) (Week 30 - Pre-Infusion) | Serum Uric Acid, Observed, Mean (SD) (Week 32 - Post-Infusion) | Serum Uric Acid, Observed, Mean (SD) (Week 32 - Pre-Infusion) | Serum Uric Acid, Observed, Mean (SD) (Week 34 - Post-Infusion) | Serum Uric Acid, Observed, Mean (SD) (Week 36 - Post-Infusion) | Serum Uric Acid, Observed, Mean (SD) (Week 40 - Pre-Infusion) | Serum Uric Acid, Observed, Mean (SD) (Week 42 - Pre-Infusion) | Serum Uric Acid, Observed, Mean (SD) (Week 46 - Pre-Infusion) | Serum Uric Acid, Observed, Mean (SD) (Week 48 - Pre-Infusion) | Serum Uric Acid, Observed, Mean (SD) (Week 50 - Pre-Infusion) | Serum Uric Acid, Observed, Mean (SD) (Week 52/ET)
11 (100%): sUA <6 mg/dL, n (%) (Week 20 - Post-Infusion) | sUA <6 mg/dL, n (%) (Week 20 - Pre-Infusion) | sUA <6 mg/dL, n (%) (Week 22 - Post-Infusion) | sUA <6 mg/dL, n (%) (Week 22 - Pre-Infusion) | sUA <6 mg/dL, n (%) (Week 24 - Pre-Infusion)
-9.20 mg/dL: Serum Uric Acid, Change from Baseline, Median (Week 36 - Post-Infusion)
1.58 (2.425) mg/dL: Serum Uric Acid, Observed, Mean (SD) (Week 36 - Pre-Infusion)
0.93 (1.583) mg/dL: Serum Uric Acid, Observed, Mean (SD) (Week 38 - Pre-Infusion)
0.82 (1.046) mg/dL: Serum Uric Acid, Observed, Mean (SD) (Week 34 - Pre-Infusion)
8 (88.9%): sUA <6 mg/dL, n (%) (Week 36 - Pre-Infusion)
